{
  "source": "patent US20070166712A1",
  "about": "“Cyp2s1 as target for diagnosis and therapy of skin diseases” (UNIVERSITY COURT OF THE UNIVERSITY OF DUNDEE, priority 2003, published 2007)",
  "key": {"human liver microsomes": {"tested_on": "human liver microsomes", "experiment": "atRA metabolism by human liver microsomes (HPLC)", "format": "in vitro ADME", "conditions": "confirmed with authentic standard", "protocol": "(§1) E. Coli membranes co-expressing CYP2S1 and CPR were incubated with atRA as previously described^17. CYP2S1-derived atRA metabolites (FIG. 4A) were separated by HPLC and identified by comparison with the elution profile of human liver microsomes (FIG. 4B). Control incubations were performed in the absence of the NADPH regenerating system (FIG. 4C).\n(§2) The CYP2S1 cDNA, a generous gift from Professor Oliver Hankinson, Department of Pathology and Laboratory Medicine, Jonsson Comprehensive Cancer Centre and Molecular Biology Institute, UCLA, Los Angeles was constructed and co-expressed with CPR in E. Coli as previously described^16. CYP2S1 metabolism of atRA was performed using HPLC analysis as previously described^17, using E. coli membranes co-expressing CYP2S1 and CPR and an NADPH regenerating system. Control reactions were performed in the absence of CYP2S1 and in the absence of the NADPH regenerating system. CYP2S1 metabolites were identified by comparison with elution times and UV profiles of atRA metabolites generated by human liver microsomes which had previously been identified using authentic standards."}, "CYP1A1 mRNA expression": {"tested_on": "CYP1A1 mRNA expression", "experiment": "CYP1A1 mRNA expression in skin of volunteer panel after topical chemicals", "format": "in vivo, human", "conditions": "topical application, data not shown"}, "CYP2S1": {"biological_target": "T1, CYP2S1 (Homo sapiens, UniProt Q96SQ9)", "T1 construct": "made in house; host or cells: E. coli (membrane fraction)", "T1 sequence (Q96SQ9 1-504)": "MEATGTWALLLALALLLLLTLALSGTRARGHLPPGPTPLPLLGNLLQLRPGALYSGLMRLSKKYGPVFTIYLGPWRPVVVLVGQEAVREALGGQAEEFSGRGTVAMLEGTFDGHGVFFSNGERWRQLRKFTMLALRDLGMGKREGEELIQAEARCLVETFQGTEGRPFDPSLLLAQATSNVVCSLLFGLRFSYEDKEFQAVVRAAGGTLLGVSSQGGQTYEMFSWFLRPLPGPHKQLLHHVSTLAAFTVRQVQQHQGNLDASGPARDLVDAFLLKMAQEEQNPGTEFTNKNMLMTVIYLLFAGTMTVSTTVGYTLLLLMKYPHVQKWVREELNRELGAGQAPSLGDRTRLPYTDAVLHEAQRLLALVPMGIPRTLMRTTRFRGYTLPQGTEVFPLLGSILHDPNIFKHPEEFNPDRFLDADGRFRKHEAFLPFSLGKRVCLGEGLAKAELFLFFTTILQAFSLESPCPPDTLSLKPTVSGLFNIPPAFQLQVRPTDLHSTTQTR", "experiment": "atRA metabolism by heterologously expressed CYP2S1 (E. coli membranes co-expressing CYP2S1 and CPR, HPLC)", "format": "in vitro ADME", "conditions": "NADPH regenerating system", "protocol": "as §1, §2"}, "CYP2S1 mRNA expression": {"tested_on": "CYP2S1 mRNA expression", "experiment": "CYP2S1 mRNA expression in skin after topical chemicals (Taqman quantitative real-time RT-PCR)", "format": "in vivo, human", "conditions": "healthy volunteers, occluded 96 hours on buttock skin, vs control skin"}, "CYP3A5": {"tested_on": "CYP3A5", "experiment": "Cutaneous expression and regulation by ATRA of additional CYP450s", "format": "in vivo"}},
  "data": [
    {"smiles": "CC1=C(/C=C/C(C)=C/C=C/C(C)=C/C(=O)O)C(C)(C)CCC1", "note": "[atRA, all-trans retinoic acid]", "values": [
      {"measurement": "formation of 4-oxo RA metabolite by human liver microsomes", "setting": "human liver microsomes", "result": "produced by human liver microsomes"},
      {"measurement": "effect on CYP1A1 mRNA expression", "setting": "CYP1A1 mRNA expression", "result": "suppressed"},
      {"measurement": "atRA metabolites produced by CYP2S1", "setting": "CYP2S1", "result": "4-OH-RA and 5,6-epoxy RA"},
      {"measurement": "formation of 4-oxo RA metabolite by CYP2S1", "setting": "CYP2S1", "result": "did not appear to produce"},
      {"measurement": "individuals showing marked CYP2S1 induction (mRNA)", "setting": "CYP2S1 mRNA expression", "result": "6/14"},
      {"measurement": "inducibility of CYP3A5 in human skin", "setting": "CYP3A5", "result": "not inducible"}
    ]}
  ]
}
